In the supplement of paper PMC3937590:

Tests used:
Test in all cases: -log10 GI50 (growth inhibition 50%) (-log10(M)); higher = more potent growth inhibition
SKBR3 = test system: SKBR3
Summary of the method: (§1)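 A value carrying a < qualifier equals the top dose tested. Each compound was tested in triplicate on breast cancer cell lines for 72 hours at nine doses in 1:5 serial dilution, using a luminescence read-out against a time-zero plate. Nonlinear least squares fitting of a Gompertz curve gave GI50, the molar concentration causing the set level of growth inhibition, which is reported as its negative logarithm. The logarithm is base 10.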

HCC1569 = test system: HCC1569
Summary of the method: as §1

SUM52PE = test system: SUM52PE
Summary of the method: as §1

ZR75B = test system: ZR75B
Summary of the method: as §1

HCC1428 = test system: HCC1428
Summary of the method: as §1

MX1 = test system: MX1
Summary of the method: as §1

AU565 = test system: AU565
Summary of the method: as §1

SUM159PT = test system: SUM159PT
Summary of the method: as §1

HCC2185 = test system: HCC2185
Summary of the method: as §1

SUM1315MO2 = test system: SUM1315MO2
Summary of the method: as §1

SUM185PE = test system: SUM185PE
Summary of the method: as §1

ZR751 = test system: ZR751
Summary of the method: as §1

MDAMB361 = test system: MDAMB361
Summary of the method: as §1

MDAMB175VII = test system: MDAMB175VII
Summary of the method: as §1

HCC1143 = test system: HCC1143
Summary of the method: as §1

CAMA1 = test system: CAMA1
Summary of the method: as §1

HCC1937 = test system: HCC1937
Summary of the method: as §1

600MPE = test system: 600MPE
Summary of the method: as §1

T47D = test system: T47D
Summary of the method: as §1

LY2 = test system: LY2
Summary of the method: as §1

Row | SMILES | -log10 GI50 (SKBR3) | -log10 GI50 (HCC1569) | -log10 GI50 (HCC1428) | -log10 GI50 (HCC2185) | -log10 GI50 (MDAMB361) | -log10 GI50 (MDAMB175VII) | -log10 GI50 (HCC1143) | -log10 GI50 (HCC1937) | -log10 GI50 (T47D) | -log10 GI50 (SUM52PE) | -log10 GI50 (ZR75B) | -log10 GI50 (MX1) | -log10 GI50 (AU565) | -log10 GI50 (SUM159PT) | -log10 GI50 (SUM1315MO2) | -log10 GI50 (SUM185PE) | -log10 GI50 (ZR751) | -log10 GI50 (CAMA1) | -log10 GI50 (600MPE) | -log10 GI50 (LY2)
1 | Cn1c(=O)n(-c2ccc(C(C)(C)C#N)cc2)c2c3cc(-c4cnc5ccccc5c4)ccc3ncc21 [BEZ235] | < 4.48 | 6.33 | 5.51 | 7.24 | 6.68 | 6.46 | < 4.48 | < 4.48 | 6.55 | 5.51 | 6.85 | < 4.48 | 6.59 | 7.44 | 6.49 | < 4.48 | 5.74 | 6.67 | < 4.48 | 6.8
2 | CC(C)C[C@H](NC(=O)[C@H](Cc1ccccc1)NC(=O)c1cnccn1)B(O)O [Bortezomib] | 7.88 | 8.12 | 7.28 | 8.35 | 5.54 | 8.3 | 8.12 | 8.1 | 8.02 | 8.28 | 7.53 | 8.06 | 8.32 | 8.14 | 7.75 | 8.27 | 7.55 | 7.9 | 6.85 | 6.46
3 | C#Cc1cccc(Nc2ncnc3cc(OCCOC)c(OCCOC)cc23)c1 [Erlotinib] | 4.8 | 4.78 | 4.75 | 4.71 | < 4.18 | 5.52 | 4.24 | 4.41 | < 4.18 | 4.98 | < 4.18 | 5.16 | 4.93 | 4.93 | 5.03 | < 4.18 | < 4.18 | < 4.18 | 4.3 | < 4.18
4 | COc1cc([C@@H]2c3cc4c(cc3[C@@H](O[C@@H]3O[C@@H]5CO[C@@H](C)O[C@H]5[C@H](O)[C@H]3O)[C@H]3COC(=O)[C@H]23)OCO4)cc(OC)c1O [Etoposide] | 5.92 | 4.2 | 4.47 | 5.11 | 4.85 | 4.19 | 5.29 | 5.34 | 5.99 | 5.59 | 6.06 | 6.34 | 6.2 | 6.11 | 6.61 | 5.31 | 5.68 | 5.31 | 5.26 | < 3.48
5 | O=C1c2ccccc2-[n+]2ccc3c([nH]c4ccccc43)c21 [Fascaplysin] | 6.65 | 6.33 | 7.43 | 6.9 | 7.09 | 6.68 | 6.56 | 6.41 | 6.34 | 6.74 | 6.39 | 6.53 | 6.95 | 6.37 | 6.38 | 7.26 | 6.45 | 6.61 | 6.55 | 8.1
6 | Cc1ccc(NC(=O)c2ccc(CN3CCN(C)CC3)cc2)cc1Nc1nccc(-c2cccnc2)n1 [Imatinib] | 4.63 | 4.75 | 4.8 | 4.82 | 4.57 | 5.01 | 4.53 | 4.69 | 4.79 | 4.65 | 4.63 | 4.65 | 4.72 | 4.75 | 4.63 | 4.91 | 4.56 | 4.71 | 4.62 | 4.65
7 | Cc1ccc(C(=O)N(CCCN)[C@@H](c2nc3cc(Cl)ccc3c(=O)n2Cc2ccccc2)C(C)C)cc1 [Ispinesib] | 7.49 | 6.8 | 5.37 | 7.53 | 7.46 | 5.84 | 7.29 | 6.56 | 7.08 | 7.54 | 6.89 | 7.92 | 7.65 | 7.33 | 7.39 | 6.96 | 7.05 | 7.51 | 7.69 | 6.06
8 | C/C(=C\c1csc(C)n1)[C@@H]1C[C@@H]2O[C@]2(C)CCC[C@H](C)[C@H](O)[C@@H](C)C(=O)C(C)(C)[C@@H](O)CC(=O)N1 [Ixabepilone] | 7.99 | 6.55 | 7.23 | 8.32 | 8.64 | 7.03 | 8.01 | 6.76 | 8.26 | 9.53 | 6.95 | 8.53 | 8.42 | 8.16 | 8.22 | 8.07 | 6.68 | 9.02 | 8.53 | 8.22
9 | C[C@]12O[C@H](C[C@]1(O)CO)n1c3ccccc3c3c4c(c5c6ccccc6n2c5c31)CNC4=O [Lestaurtinib] | 6 | 6.19 | 6.3 | 5.52 | 6.45 | 6.09 | 6.48 | 6.21 | 5.25 | 6.87 | 6.34 | 7.17 | 6.07 | 6.55 | 7.45 | 7.2 | 5.75 | 5.42 | 5.77 | 6.6
10 | CC(C)C[C@@H](C=O)NC(=O)[C@H](CC(C)C)NC(=O)[C@H](CC(C)C)NC(=O)OCc1ccccc1 [MG-132] | 6.58 | 6.68 | 6.46 | 6.66 | 6.62 | 6.66 | 6.8 | 6.82 | 6.97 | 7.12 | 6.4 | 6.88 | 7.05 | 7.27 | 6.92 | 7.01 | 6.26 | 6.69 | 6.3 | 6.49
11 | COC(=O)Nc1nc2cc(C(=O)c3ccccc3)ccc2[nH]1 [Mebendazole] | 6.49 | 5.31 | < 4.18 | < 4.18 | 6.24 | 6.6 | 6.01 | 4.9 | 5.66 | 6.85 | 6.81 | 6.42 | 6.96 | 6.69 | < 4.18 | 6.3 | 6.62 | 6.33 | 5 | 6.32
12 | Cc1c(O)cccc1C(=O)N[C@@H](CSc1ccccc1)[C@H](O)CN1C[C@H]2CCCC[C@H]2C[C@H]1C(=O)NC(C)(C)C [Nelfinavir] | 5.09 | < 4.48 | 5.16 | < 4.48 | 4.97 | 5.15 | 5.13 | 5.15 | 4.88 | 4.75 | 5.13 | 5.15 | < 4.48 | 4.76 | < 4.48 | 5.24 | 4.94 | 5.37 | 5.05 | 5.05
13 | O=S(=O)(CC1CS1)c1ccc(Oc2ccccc2)cc1 (stereo not given) [SB-3CT] | < 4 | < 3.78 | 4.24 | 4.33 | < 3.78 | < 4 | < 4 | < 4 | < 4 | 4.33 | 4.62 | 4.85 | < 4 | 4.85 | 4.02 | 4.75 | < 3.78 | < 4 | < 4 | < 4

Now from value to molecule, other results behind:

Row | -log10 GI50 (SKBR3) | -log10 GI50 (HCC1569) | -log10 GI50 (HCC1428) | -log10 GI50 (HCC2185) | -log10 GI50 (MDAMB361) | -log10 GI50 (MDAMB175VII) | -log10 GI50 (HCC1143) | -log10 GI50 (HCC1937) | -log10 GI50 (T47D) | SMILES | -log10 GI50 (SUM52PE) | -log10 GI50 (ZR75B) | -log10 GI50 (MX1) | -log10 GI50 (AU565) | -log10 GI50 (SUM159PT) | -log10 GI50 (SUM1315MO2) | -log10 GI50 (SUM185PE) | -log10 GI50 (ZR751) | -log10 GI50 (CAMA1) | -log10 GI50 (600MPE) | -log10 GI50 (LY2)
14 | 4.33 | 4.43 | 4.5 | 4.81 | 4.18 | 5.23 | 4.67 | 4.65 | 4.51 | COc1ccc(C2=N[C@@H](c3ccc(Cl)cc3)[C@@H](c3ccc(Cl)cc3)N2C(=O)N2CCNC(=O)C2)c(OC(C)C)c1 [Nutlin 3a] | 4.74 | 5.69 | 4.65 | 4.79 | 4.78 | 4.75 | 4.54 | 5.51 | 4.34 | 4.81 | 5.29
15 | 4.96 | 5.28 | 5.29 | 5.11 | 5.01 | 5.14 | 5.51 | 5.2 | 5.18 | CC[C@H](CO)Nc1nc(NCc2ccccc2O)c2ncn(C(C)C)c2n1 [Olomoucine II] | 5.19 | 5.23 | 5.24 | 5.33 | 5.32 | 5.47 | 5.98 | 5.21 | 5.3 | 5.23 | 5.46
16 | 5.95 | 5.88 | 6.33 | 6.47 | 6.15 | 5.41 | 6.28 | 5.84 | 6.06 | O=C(/C=C/C#Cc1cccc(NS(=O)(=O)c2ccccc2)c1)NO [Oxamflatin] | 6.23 | 6.41 | 6.32 | 6.19 | 6.5 | 5.64 | 6.51 | 5.65 | 6.09 | 5.53 | 5.89
17 | 5.02 | < 2.53 | < 2.53 | < 2.53 | 6.19 | 8.1 | < 2.53 | 3.17 | < 2.53 | Nc1nc2[nH]cc(CCc3ccc(C(=O)N[C@@H](CCC(=O)O)C(=O)O)cc3)c2c(=O)[nH]1 [Pemetrexed] | < 2.53 | < 2.53 | < 2.53 | < 2.53 | < 2.53 | < 2.53 | < 2.53 | 5.05 | 4.62 | < 2.53 | 6.33
18 | < 3.88 | 4.33 | 4.09 | 4.33 | < 3.88 | < 3.88 | < 3.88 | < 3.88 | < 4.18 | N#Cc1c(-c2ccccc2)cc(-c2cc(Br)ccc2O)[nH]c1=O [TCS PIM-11] | 4.72 | < 3.88 | 4.73 | < 4.18 | 4.46 | 4.75 | 4.67 | 4 | < 3.88 | < 3.88 | < 3.88
19 | 5.21 | 5.06 | 5.73 | 4.79 | 5.09 | 5.3 | 4.77 | 4.82 | 5.46 | CC(/C=C/C(=O)NO)=C\[C@@H](C)C(=O)c1ccc(N(C)C)cc1 [Trichostatin A] | 5.58 | 5.3 | 4.79 | 5.44 | 5.23 | 4.31 | 4.76 | 4.74 | 5.57 | 5.19 | 4.99
20 | < 4.48 | 5.68 | 5.11 | 6.48 | 5.1 | 4.72 | 6 | 5.1 | 5.03 | Cc1cc(Nc2cc(N3CCN(C)CC3)nc(Sc3ccc(NC(=O)C4CC4)cc3)n2)n[nH]1 [VX-680] | 6.42 | 6.79 | 6.81 | 5.66 | 6.47 | 5.8 | 5.62 | 5.29 | 4.53 | 5.06 | 5.21
21 | 3.04 | 2.77 | 3.13 | 2.88 | 2.82 | 2.96 | 2.66 | 2.56 | 2.53 | CCCC(CCC)C(=O)O [Valproic acid] | 2.91 | 2.71 | 3.45 | 2.85 | 2.91 | 2.62 | 2.84 | 2.78 | 2.79 | 2.52 | 2.96
